Read-outs that look alike come from different tables or passages of the source.
What was measured:
[1] = biological target: T1, Kir3 channels (Mus musculus, UniProt P48542); assay: patch-clamp determination of ion transport activity: activation of Kir3 channels; format: cell-based; settings: for Emax at 100000 µM: read-out: Maximal activation of Kir3 channels relative to that of 100 mM (±)MPD
T1 construct: other: patch-clamp; other: 100 mM
T1 sequence (P48542 1-425): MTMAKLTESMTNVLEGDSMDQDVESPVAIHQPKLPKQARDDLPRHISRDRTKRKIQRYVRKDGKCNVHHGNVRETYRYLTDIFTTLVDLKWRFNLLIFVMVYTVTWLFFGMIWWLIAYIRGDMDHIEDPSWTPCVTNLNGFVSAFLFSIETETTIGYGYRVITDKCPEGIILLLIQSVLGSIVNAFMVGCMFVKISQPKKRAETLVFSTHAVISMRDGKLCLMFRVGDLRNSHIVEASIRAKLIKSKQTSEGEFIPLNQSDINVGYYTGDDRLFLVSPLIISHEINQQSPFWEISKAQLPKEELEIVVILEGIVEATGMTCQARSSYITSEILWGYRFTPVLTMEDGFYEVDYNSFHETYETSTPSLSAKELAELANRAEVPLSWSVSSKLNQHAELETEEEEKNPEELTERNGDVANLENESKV
Source text: It has been determined that inwardly rectifying potassium (Kir) channels are regulated directly by small molecule alcohol compounds. Three-dimensional crystallographic analysis of Kir channels has elucidated atomic details of binding pocket interactions with 2-methyl-2,4-pentanediol (MPD). MPD inhibits Kir2 channel activity and activates Kir3 channel activity. Amino acid substitutions in this hydrophobic pocket of the channel protein may alter the response to MPD. As determined by patch-clamp determinations of ion transport activity, a racemic mixture of 2-methyl-2,4-pentanediol, (±)MPD, activates Kir3 channels with an EC50 of >200 mM and inhibits Kir2 homotetramer channels with an IC50 of ˜200 mM. […] Bupivacaine inhibits Kir3.1/3.4 and Kir3.1/3.2 channels with an IC50 of ˜20-40 micromolar.
The following also were observed. Maximal activation of Kir3 channels by 100 mM (±)MPD is 280% that of 100 mM EtOH. Maximal activation of Kir3 channels by 100 mM R(−)2 methyl-2,4-pentanediol is 60% that of 100 mM (±)MPD. Maximal activation of Kir3 channels by 100 mM 3-methyl-1,3,5-pentanetriol is 70% that of 100 mM (±)MPD. Maximal activation of Kir3 channels by 100 mM 2,5-dimethyl-1,2,6-hexanetriol is 70% that of 100 mM (±)MPD. Maximal activation of Kir3 channels by 100 mM (±) 2,4-pentanediol is 50% that of 100 mM (±)MPD.

[2] = tested on: Kir3.1/3.4 and Kir3.1/3.2 channels; settings: cited from earlier work
[3] = tested on: Kir1 and Kir2 channels; settings: cited from earlier work
[4] = biological target: T2, IRK1 channel (Mus musculus, UniProt P35561); assay: whole-cell patch clamp, HEK293T cells transfected with IRK1; format: cell-based; settings: 1 mM Ba++
T2 construct: expressed in transfected cells; host or cells: HEK293T
T2 sequence (P35561 1-428): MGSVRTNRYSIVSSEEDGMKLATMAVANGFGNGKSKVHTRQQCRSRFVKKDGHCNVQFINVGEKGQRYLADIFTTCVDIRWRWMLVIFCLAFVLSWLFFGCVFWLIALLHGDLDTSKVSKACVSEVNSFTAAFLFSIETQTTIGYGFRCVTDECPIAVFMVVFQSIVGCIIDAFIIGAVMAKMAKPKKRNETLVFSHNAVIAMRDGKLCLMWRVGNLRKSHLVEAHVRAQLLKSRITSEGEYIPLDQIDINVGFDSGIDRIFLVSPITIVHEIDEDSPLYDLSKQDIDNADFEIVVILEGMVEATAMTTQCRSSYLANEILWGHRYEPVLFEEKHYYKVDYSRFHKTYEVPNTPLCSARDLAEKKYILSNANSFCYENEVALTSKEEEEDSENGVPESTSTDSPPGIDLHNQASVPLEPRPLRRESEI
Description: Using whole-cell patch clamp, technique in HEK293T cells transfected with IRK1 or GIRK2 channels, it was determined that MPD does in fact modulate these channels. Addition of 100 mM MPD inhibits the inward currents of the IRK1 channel, without changing the reversal potential or altering inward rectification (FIG. 1e).
(§1) GIRK2c, GIRK4, IRK1, M2R and m-Phosducin were subcloned into PCDNA3.1 vector (Invitrogen). Point mutations were introduced by Quickchange site directed mutagenesis kit (Stratagene). The GIRK2 PIP mutant was generated by overlap-PCR method. Briefly, amino acid 216-NLRKSHL-222 (SEQ ID NO: 25) of IRK1 was swapped into 228-DLRNSHL-234 (SEQ ID NO: 26) of GIRK2, in the region designated βC-βD loop in the crystal structure. Mutations were confirmed by automated DNA sequencing methods.
(§2) HEK 293T cells were cultured in DMEM supplemented with 10% FBS, and 1× Glutamax (Invitrogen) in a humidified 37° incubator with 5% CO2. Cells were plated in a 12 well dish, and were transiently transfected using Lipofectamine 2000 (Invitrogen). After 12-24 hrs, cells were re-plated to 12-mm glass coverslips coated with poly-D-Lysine (20 microgram/ml).
(§3) HEK293 cells were transfected with 0.2 micrograms of channel cDNA. The cells were co-transfected with 0.04 micrograms of eYFP cDNA to identify transfected cells. 0.8 micrograms of Muscarinic Receptor 2 (M2R) was also co-transfected for experiments with Carbachol. For experiments with and without m-phosducin, 0.8 ug of m-phosducin cDNA was used versus a PCDNA3.1 vector control.
(§4) Whole-cell patch clamp recordings were performed 24-72 hrs after transfection. Borosilicate glass electrodes (Warner Instruments) of […] filled with intracellular solution (130 mM KCl, 20 mM NaCl, 5 mM EGTA, 2.56 mM K2ATP, 5.46 mM MgCl2, 0.30 mM Li2GTP, and 10 mM HEPES (pH 7.4)) was used. Membrane currents were recorded using Axopatch 200B (Axon Instruments) amplifier, adjusted electronically for cell capacitance and series resistance (80-100%), filtered at 1 kHz with an 8-pole Bessel filter and digitized at 5 kHz with a Digidata 1200 interface (Axon Instruments). The cells rapidly perfused with a 20 mM K^+ (20K) solution (20 mM KCl, 140 mM NaCl, 0.5 mM CaCl2, 2 mM MgCl2 and 10 mM HEPES (pH7.4)). Alcohols, 5 μM Carbachol, and 1 mM BaCl2 (diluted in 20K solution) were applied from outside the cell with the rapid perfusion system (Warner Instruments). Whole-cell currents were measured using a ramp protocol that holds at −40 mV, steps to −100 mV then ramps to +50 mV and repeats every 2 seconds. Current-voltage relationships also were obtained from the ramp protocol. This protocol was used to measure the inwardly rectifying currents at −100 mV and to ensure stability of recording by monitoring a reversal potential and inward rectification. Current density was measured by dividing inward current at −100 mV by membrane capacitance that was compensated during the recording. Basal currents were measured as the Ba^++ blocked inward currents at −100 mV. Alcohol and Carbachol modulated currents were measured by averaging two consecutive current readings upon reaching steady state, and subtracting the averaged basal current before and after the application of modulator. Pooled data are presented as Mean±SEM and evaluated for statistical significance by a 1-way ANOVA, followed by Bonferroni's multiple comparison post-hoc test.

[5] = biological target: T3, GIRK2 channel (wild type) (Mus musculus, UniProt P48542); assay: whole-cell patch clamp, HEK293T cells transfected with GIRK2; format: cell-based; settings: 1 mM Ba++, MPD doses up to 300 mM
T3 construct: expressed in transfected cells; host or cells: HEK293T
T3 sequence (P48542 1-425): T1 sequence (P48542 1-425)
Source text: as §1, §2, §3, §4

With `CC(O)CC(C)O` (racemic) [(±) 2,4-pentanediol, 2,4-pentanediol] the Emax at 100000 µM [1] was 50%.
`CC(O)(CCO)CCO` [3-methyl-1,3,5-pentanetriol] gave an Emax at 100000 µM [1] of 70%.
For `CC(CO)CCC(C)(O)CO` (stereo not drawn) [2,5-dimethyl-1,2,6-hexanetriol], the Emax at 100000 µM [1] was 70%.
For `CCCCN1CCCCC1C(=O)Nc1c(C)cccc1C` (stereo not drawn) [Bupivacaine], the IC50 ([2]; certain Kir3 channels, read-out: IC50 for inhibition of certain Kir3 channels) is given as about 20 µM, the IC50 ([2]; reference [31], read-out: IC50 for inhibition of Kir3.1/3.4 and Kir3.1/3.2 channels) is given as 20 to 40 µM and the “sensitivity of Kir1 and Kir2 channels to bupivacaine” value [3] is given as “insensitive”.
With `C[C@@H](O)CC(C)(C)O` [R(−)2 methyl-2,4-pentanediol] the “Maximal activation of Kir3 channels relative to that of 100 mM (±)MPD” value ([1]; 100 mM) was 60%.
With `[Ba+2].[Cl-].[Cl-]` [Ba^++, BaCl2] the “block of IRK1 inwardly rectifying current” value [4] was “blocked completely” and the “block of MPD-induced GIRK2 currents” value [5] was “completely blocked”.

From patent publication US8097422B2, “Kir channel modulators” (Salk Institute for Biological Studies, priority 2007, dated 2012)
